Source: patent US8993606B2, “Oral formulations for treating metal overload” (FerroKin BioSciences, Inc., priority 2011, dated 2015)

How the values were obtained:
iron overloaded subjects = assay: Safety: single-dose Phase 1 study in iron-overloaded subjects; type: in vivo
Description: The objectives of this study were to assess the safety, tolerability, and pharmacokinetics of ascending single doses of Compound 1. Additionally, dose proportionality and pharmacodynamics of Compound 1 were assessed. Four doses of Compound 1 (6, 10, 16, and 32 mg/kg), in capsule form, were evaluated in this study. Each dose level was tested in a single subject, with appropriate evaluation of safety done prior to escalating the dose. Following screening, the first subject was dosed and then confined to the clinical research unit for 24 hours to conduct safety and pharmacokinetic assessments. The subject was released from the clinic on Day 2 and returned daily for follow-up visits for 5 days post-dosing. This process was followed for each dose level.
Four iron overloaded subjects were enrolled and completed the study. Each subject received a single oral dose of Compound 1. Doses were 6, 10, 16 and 32 mg/kg. […] Three TEAEs were reported for a single subject who received 32 mg/kg of Compound 1. All 3 TEAEs occurred at the site of venipuncture used for blood sampling: bruising at cannula site on the left arm and bruising at 2 venipuncture sites on the left arm and then the right arm.

iron-overloaded subjects = assay: Safety: multiple-dose study in iron-overloaded subjects; type: in vivo, human
Description: Twenty iron-overloaded subjects were enrolled and completed the study. Four subjects in each cohort were orally administered 3, 8, 16, or 32 or 40 mg/kg/day of Compound 1 for 7 consecutive days.

healthy subjects = assay: Safety: single-dose study in healthy subjects (3, 6, 10, 16 mg/kg); type: in vivo; settings: for Arthralgia / Colitis / Flatulence / Gastroenteritis / Headache / Somnolence / Total Number (%) of Subjects Experiencing Adverse Events / Total Number of Subjects Experiencing NO Adverse Events / Upper respiratory tract infection: 3 subjects
From the text: Example 8 was a double-blind, placebo-controlled single dose-escalating study in healthy subjects. Men between the ages of 18-45 years qualified to participate if they were able to voluntarily give consent and had no clinically significant abnormal findings at the screening evaluation. Specifically, subjects had blood pressure in the normal range, ECG and clinical laboratory values within normal limits, tested negative for drugs of abuse and had not recently donated blood. Subjects were also HIV, Hepatitis B, and Hepatitis C negative and agreed to use an approved method of contraception during the study.
The objectives of this study were to assess the safety, tolerability, and pharmacokinetics of ascending single doses of Compound 1 compared to placebo. Additionally, dose proportionality and pharmacodynamics of Compound 1 were assessed. Four doses of Compound 1 (3, 6, 10, and 16 mg/kg), in capsule form, were evaluated in this study. Following screening, subjects in a given cohort were randomly assigned to receive either Compound 1 or placebo. In the first cohort, 3 subjects received […] and 2 received placebo; in each of the subsequent remaining 3 cohorts, 3 subjects received the next higher dose of Compound 1 and 1 received placebo. Subjects were dosed and then confined to the clinical research unit for 24 hours to conduct safety and pharmacokinetic assessments. Subjects were released from the clinic on Day 2 and returned daily for follow-up visits for 5 days post-dosing.
All 17 enrolled subjects completed the study: Twelve received a single dose of Compound 1 (3, 6, 10, and 16 mg/kg) and 5 received placebo. […] Treatment-emergent adverse events (TEAEs) were reported for 5 of the 12 subjects receiving Compound 1 (Table 28 and 29). A total of 9 AEs were reported; 8 treatment-emergent, and 1 pre-dose, all in subjects receiving Compound 1. […] Additionally, there were no clear differences in safety as evaluated by clinical laboratory assessments, vital sign measurements, and ECG parameters between subjects who had received Compound 1 compared with those who received placebo, and no apparent dose-related trends in these safety assessments in subjects who received Compound 1.

## COCCOCCOCCOc1cccc(C2=N[C@@](C)(C(=O)O)CS2)c1O [Compound 1, (S)-4,5-Dihydro-2-[2-hydroxy-3-(3,6,9-trioxadecyloxy)phenyl]-4-methyl-4-thiazolecarboxylate magnesium hydroxide]
Iron overloaded subjects; single oral dose 6, 10, 16, 32 mg/kg
  tolerability: well tolerated
Iron overloaded subjects; single oral dose 6-32 mg/kg
  clinical laboratory assessments, vital sign measurements, ECG parameters: no clinically significant changes
  deaths, SAEs, withdrawals due to AEs: no deaths, no serious adverse events (SAEs), and no withdrawals due to AEs
Iron overloaded subjects; single subject who received 32 mg/kg, all at site of venipuncture
  TEAEs reported: Three
iron-overloaded subjects; 1 subject
  TEAE QT prolonged: 5%
  TEAE abdominal pain upper: 5%
  TEAE blood urine present: 5%
  TEAE chromaturia: 5%
  TEAE dizziness: 5%
  TEAE feeling hot: 5%
  TEAE pruritus: 5%
  TEAE tachycardia: 5%
iron-overloaded subjects; 2 subjects
  TEAE flatulence: 10%
iron-overloaded subjects; 3, 8, 16, 32 or 40 mg/kg/day for 7 consecutive days
  tolerability: generally well tolerated
iron-overloaded subjects; 5 subjects
  TEAE headache: 25%
iron-overloaded subjects; 8 subjects, related to study drug
  TEAE urine color abnormal: 40%
iron-overloaded subjects; 20 subjects, majority mild and unrelated to study drug
  subjects with at least 1 TEAE: 90%
iron-overloaded subjects; one subject, Day 7 of treatment, not observed with QTcF
  QTcB interval prolongation: 20 ms
iron-overloaded subjects; subject at 3 mg/kg/day, sickle cell crisis, not related to treatment
  SAE recorded: 1 SAE
Healthy subjects; 3 mg/kg
  Arthralgia: 0 Number (%) Subjects
  Colitis: 0 Number (%) Subjects
  Flatulence: 0 Number (%) Subjects
  Gastroenteritis: 1 (33%) Number (%) Subjects
  Headache: 0 Number (%) Subjects
  Somnolence: 1 (33%) Number (%) Subjects
  Total Number (%) of Subjects Experiencing Adverse Events: 1 (33%) Number (%)
  Total Number of Subjects Experiencing NO Adverse Events: 2 (67%)
  Upper respiratory tract infection: 0 Number (%) Subjects
Healthy subjects; 6 mg/kg
  Arthralgia: 1 (33%) Number (%) Subjects
  Colitis: 0 Number (%) Subjects
  Flatulence: 0 Number (%) Subjects
  Gastroenteritis: 0 Number (%) Subjects
  Headache: 0 Number (%) Subjects
  Somnolence: 0 Number (%) Subjects
  Total Number (%) of Subjects Experiencing Adverse Events: 1 (33%) Number (%)
  Total Number of Subjects Experiencing NO Adverse Events: 2 (67%)
  Upper respiratory tract infection: 1 (33%) Number (%) Subjects
Healthy subjects; 10 mg/kg
  Colitis: 0 Number (%) Subjects
  Flatulence: 0 Number (%) Subjects
  Gastroenteritis: 0 Number (%) Subjects
  Headache: 0 Number (%) Subjects
  Somnolence: 0 Number (%) Subjects
  Total Number (%) of Subjects Experiencing Adverse Events: 0 Number (%)
  Total Number of Subjects Experiencing NO Adverse Events: 3 (100%)
  Upper respiratory tract infection: 0 Number (%) Subjects
Healthy subjects; 16 mg/kg
  Arthralgia: 0 Number (%) Subjects
  Colitis: 1 (33%) Number (%) Subjects
  Flatulence: 1 (33%) Number (%) Subjects
  Headache: 1 (33%) Number (%) Subjects
  Somnolence: 0 Number (%) Subjects
  Total Number (%) of Subjects Experiencing Adverse Events: 3 (100%) Number (%)
  Total Number of Subjects Experiencing NO Adverse Events: 0
  Upper respiratory tract infection: 0 Number (%) Subjects
Healthy subjects; single dose 3, 6, 10, 16 mg/kg
  tolerability: well tolerated
Healthy subjects; single dose 3-16 mg/kg
  deaths, SAEs, withdrawals due to AEs: no deaths, no serious adverse events (SAEs), and no withdrawals due to AEs
  subjects with treatment-emergent adverse events (TEAEs): 5 of the 12
  total AEs reported: 9 AEs
  treatment-emergent AEs: 8
